Measurements taken from patent US20160303056A1, “FASTING MIMICKING DIET (FMD) AND GLUCOSE LOWERING DRUGS PROTECT NORMAL CELLS AND GENERATE CANCER SENSITIZING CONDITIONS IN RESPONSE TO STANDARD AND HIGH GLUCOSE CONDITIONS INDUCED BY RAPAMYCIN AND DEXAMETHASONE” (UNIVERSITY OF SOUTHERN CALIFORNIA, priority 2015, published 2016).

What was measured:
[1] = Blood glucose levels in mice injected ip with metformin; format: in vivo, mouse; details: metformin 50 mg/kg ip, saline for control mice (FIG. 1E)
[2] = Circulating glucose levels in mice given rapamycin or dexamethasone, with or without insulin, STS or FMD; format: in vivo, mouse (C57BL/6); details: rapamycin or dexamethasone ip daily for 14 days, compared with ad lib (FIG. 1B)
[3] = tested on: C57BL/6 mice; details: mouse, in vivo

Compound | circulating glucose levels [1] | circulating glucose levels [2] | sensitization of mice to chemotherapy (mortality) [3]
CN(C)C(=N)NC(=N)N [Metformin, N,N-Dimethylimidodicarbonimidic diamide] | reducing circulating glucose levels |  | 
C[C@@H]1C[C@H]2[C@@H]3CCC4=CC(=O)C=C[C@]4(C)[C@@]3(F)[C@@H](O)C[C@]2(C)[C@@]1(O)C(=O)CO [dexamethasone] |  | caused an increase in glucose levels | increased mortality
CO[C@H]1C[C@@H]2CC[C@@H](C)[C@@](O)(O2)C(=O)C(=O)N2CCCC[C@H]2C(=O)O[C@H]([C@H](C)C[C@@H]2CC[C@@H](O)[C@H](OC)C2)CC(=O)[C@H](C)/C=C(\C)[C@@H](O)[C@@H](OC)C(=O)[C@H](C)C[C@H](C)/C=C/C=C/C=C/1C [rapamycin] |  | caused an increase in glucose levels | increased mortality
